In patent publication US10710986B2, “PD-1/PD-L1 inhibitors” (Gilead Sciences, Inc., priority 2018, dated 2020):
pIC50: −log10 of the molar value.

Target: PD-1/PD-L1 (Homo sapiens (Human), UniProt Q9NZQ7)
Experiment: PD-1/PD-L1 biochemical protein-protein interaction assay (ALPHA)
Settings: 0.3 nM His tagged PD-L1, 2.5 nM biotinylated Fc-PD-1, 60 minutes at 25° C., read-out: IC50 PD-L1-PD1

Chain of PD-1/PD-L1 (Q9NZQ7 19-238): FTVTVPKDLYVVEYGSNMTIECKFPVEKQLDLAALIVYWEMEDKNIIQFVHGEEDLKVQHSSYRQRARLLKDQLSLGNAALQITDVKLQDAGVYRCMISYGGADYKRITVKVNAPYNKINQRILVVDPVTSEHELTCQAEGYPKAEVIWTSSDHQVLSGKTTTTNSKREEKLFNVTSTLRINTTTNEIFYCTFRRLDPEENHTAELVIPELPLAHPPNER

Row | Structure (SMILES) | pIC50
1 | COc1nc(-c2cccc(-c3cccc(-c4cnc(CN)c(OC)n4)c3Cl)c2Cl)cnc1CN [compound 135] | 9.13
2 | COc1nc(-c2cccc(-c3cccc(-c4cnc(CN5CC6(CCC(=O)N6)C5)c(OC)n4)c3Cl)c2Cl)cnc1CN1CC2(CCC(=O)N2)C1 [compound 136] | 9.83
3 | COc1nc(-c2cccc(-c3cccc(-c4cnc(CNC[C@@H](O)CC(=O)O)c(OC)n4)c3Cl)c2Cl)cnc1CNC[C@@H](O)CC(=O)O [compound 137] | 9.77
4 | COc1nc(-c2cccc(-c3cccc(-c4cnc(CNCCO)c(OC)n4)c3Cl)c2Cl)cnc1CNCCO [compound 140] | 9.59
5 | COc1nc(-c2cccc(-c3cccc(-c4cnc(C5=NCCN5)c(OC)n4)c3Cl)c2Cl)cnc1C1=NCCN1 [compound 141] | 10.19
6 | COc1nc(-c2cccc(-c3cccc(-c4cnc(CN5CC[C@](C)(O)C5)c(OC)n4)c3Cl)c2Cl)cnc1CN1CC[C@](C)(O)C1 [compound 142] | 9.70
7 | COc1nc(-c2cccc(-c3cccc(-c4cnc(CN[C@@H]5CCOC5)c(OC)n4)c3Cl)c2Cl)cnc1CN[C@@H]1CCOC1 [compound 143] | 9.39
8 | COc1nc(-c2cccc(-c3cccc(-c4cnc(CN[C@H]5CCOC5)c(OC)n4)c3Cl)c2Cl)cnc1CN[C@H]1CCOC1 [compound 144] | 9.62
9 | COc1nc(-c2cccc(-c3cccc(-c4cnc(CN5CC(CO)C5)c(OC)n4)c3Cl)c2Cl)cnc1CN1CC(CO)C1 [compound 145] | 10.00
10 | COc1nc(-c2cccc(-c3cccc(-c4cnc(CN5CCC(C)(O)C5)c(OC)n4)c3Cl)c2Cl)cnc1CN1CCC(C)(O)C1 (stereo not drawn) [compound 146] | 9.89
11 | COc1nc(-c2cccc(-c3cccc(-c4cnc(CN5CC(C)(O)C5)c(OC)n4)c3Cl)c2Cl)cnc1CN1CC(C)(O)C1 [compound 147] | 10.22
12 | COc1nc(-c2cccc(-c3cccc(-c4cnc(CN5CC(C)(CO)C5)c(OC)n4)c3Cl)c2Cl)cnc1CN1CC(C)(CO)C1 [compound 148] | 10.22
13 | COc1nc(-c2cccc(-c3cccc(-c4cnc(CN[C@H]5C[C@H](CO)C5)c(OC)n4)c3Cl)c2Cl)cnc1CN[C@H]1C[C@H](CO)C1 [compound 149] | 9.57
14 | COc1nc(-c2cccc(-c3cccc(-c4cnc(CN[C@H]5C[C@@H](CO)C5)c(OC)n4)c3Cl)c2Cl)cnc1CN[C@H]1C[C@@H](CO)C1 [compound 150] | 9.70
15 | COc1nc(-c2cccc(-c3cccc(-c4ccc(CN5CC6(CCC(=O)N6)C5)c(C#N)c4)c3Cl)c2Cl)cnc1CNC[C@@H]1CCC(=O)N1 [compound 151] | 9.16
16 | COc1nc(-c2cccc(-c3cccc(-c4ccc(CNC[C@@H]5CCC(=O)N5)c(C#N)c4)c3Cl)c2Cl)cnc1CNC[C@@H]1CCC(=O)N1 [compound 152] | 10.14
17 | COc1nc(-c2cccc(-c3cccc(-c4ccc(CN5CC(O)C5)c(C#N)c4)c3Cl)c2Cl)cnc1CNC[C@@H]1CCC(=O)N1 [compound 153] | 9.40
18 | COc1nc(-c2cccc(-c3cccc(-c4ccc(CN5CC(C)(CO)C5)c(C#N)c4)c3Cl)c2Cl)cnc1CNC[C@@H]1CCC(=O)N1 [compound 154] | 9.90
19 | COc1nc(-c2cccc(-c3cccc(-c4cnc(CNC[C@@H]5CCC(=O)N5)c(OC)n4)c3Cl)c2Cl)ccc1CNCc1ccc2[nH]c(C)cc2c1 [compound 155] | 8.78

Row | Structure (SMILES) | pIC50
20 | COc1nc(-c2cccc(-c3cccc(-c4cnc(CNC[C@@H]5CCC(=O)N5)c(OC)n4)c3Cl)c2Cl)ccc1CN1CC(C)(CO)C1 [compound 156] | 10.08
21 | COc1nc(-c2cccc(-c3cccc(-c4cnc(CNC[C@@H]5CCC(=O)N5)c(OC)n4)c3Cl)c2Cl)ccc1CN1CC(CO)C1 [compound 157] | 10.19
22 | COc1nc(-c2cccc(-c3cccc(-c4cnc(CNC[C@@H]5CCC(=O)N5)c(OC)n4)c3Cl)c2Cl)ccc1CN1CCC(C)(O)CC1 [compound 158] | 9.79
23 | COc1nc(-c2cccc(-c3cccc(-c4cnc(CNC[C@@H]5CCC(=O)N5)c(OC)n4)c3Cl)c2Cl)ccc1CN1CC[C@](C)(O)C1 [compound 159] | 9.82
24 | COc1nc(-c2cccc(-c3cccc(-c4cnc(CNC[C@@H]5CCC(=O)N5)c(OC)n4)c3Cl)c2Cl)ccc1CN1CCC(CO)CC1 [compound 160] | 9.89
25 | COc1nc(-c2cccc(-c3cccc(-c4cnc(CNC[C@@H]5CCC(=O)N5)c(OC)n4)c3Cl)c2Cl)ccc1CNCc1nc(=O)o[nH]1 [compound 161] | 9.78
26 | COc1nc(-c2cccc(-c3cccc(-c4cnc(CNC[C@@H]5CCC(=O)N5)c(OC)n4)c3Cl)c2Cl)ccc1CNC1CCOCC1 [compound 162] | 9.94
27 | COc1nc(-c2cccc(-c3cccc(-c4cnc(CNC[C@@H]5CCC(=O)N5)c(OC)n4)c3Cl)c2Cl)ccc1CN1CCC(C(N)=O)CC1 [compound 163] | 9.75
28 | COc1nc(-c2cccc(-c3cccc(-c4cnc(CNC[C@@H]5CCC(=O)N5)c(OC)n4)c3Cl)c2Cl)ccc1CN1CC(O)C1 [compound 164] | 9.91
29 | COc1nc(-c2cccc(-c3cccc(-c4cnc(CNC[C@@H]5CCC(=O)N5)c(OC)n4)c3Cl)c2Cl)ccc1CN[C@@H]1COC[C@H]1O [compound 165] | 9.73
30 | COc1nc(-c2cccc(-c3cccc(-c4cnc(CNC[C@@H]5CCC(=O)N5)c(OC)n4)c3Cl)c2Cl)ccc1CN[C@H]1CNC(=O)C1 [compound 166] | 9.63
31 | COc1nc(-c2cccc(-c3cccc(-c4cnc(CNC[C@@H]5CCC(=O)N5)c(OC)n4)c3Cl)c2Cl)ccc1CN[C@@H]1CNC(=O)C1 [compound 167] | 9.58
32 | COc1nc(-c2cccc(-c3cccc(-c4cnc(CNC[C@@H]5CCC(=O)N5)c(OC)n4)c3Cl)c2Cl)ccc1CN1CC2(CNC(=O)N2)C1 [compound 168] | 9.71
33 | COc1nc(-c2cccc(-c3cccc(-c4cnc(CNC[C@@H]5CCC(=O)N5)c(OC)n4)c3Cl)c2Cl)ccc1CN[C@H]1CCNC1=O [compound 169] | 9.46
34 | COc1nc(-c2cccc(-c3cccc(-c4cnc(CNC[C@@H]5CCC(=O)N5)c(OC)n4)c3Cl)c2Cl)ccc1CN[C@@H]1CCOC1 [compound 170] | 9.64
35 | COc1nc(-c2cccc(-c3cccc(-c4cnc(CNC[C@@H]5CCC(=O)N5)c(OC)n4)c3Cl)c2Cl)ccc1CN[C@H]1CCOC1 [compound 171] | 9.68
36 | COc1nc(-c2cccc(-c3cccc(-c4cnc(CNC[C@H]5C[C@@H](O)C5)c(OC)n4)c3Cl)c2Cl)cnc1CNC[C@@H]1CCC(=O)N1 [compound 172] | 9.65
37 | COc1nc(-c2cccc(-c3cccc(-c4cnc(CN5CC(OC)C5)c(OC)n4)c3Cl)c2Cl)cnc1CNC[C@@H]1CCC(=O)N1 [compound 173] | 9.68
38 | COc1nc(-c2cccc(-c3cccc(-c4cnc(CN5CCC(C)(O)C5)c(OC)n4)c3Cl)c2Cl)cnc1CNC[C@@H]1CCC(=O)N1 (stereo partly drawn) [compound 174] | 9.66

Row | Structure (SMILES) | pIC50
39 | COc1nc(-c2cccc(-c3cccc(-c4cnc(CN5CC(C)(CO)C5)c(OC)n4)c3Cl)c2Cl)cnc1CNC[C@@H]1CCC(=O)N1 [compound 175] | 9.96
40 | COc1nc(-c2cccc(-c3cccc(-c4cnc(CN5CC(CO)C5)c(OC)n4)c3Cl)c2Cl)cnc1CNC[C@@H]1CCC(=O)N1 [compound 176] | 9.95
41 | COc1nc(-c2cccc(-c3cccc(-c4cnc(CNC5CCC(F)C5)c(OC)n4)c3Cl)c2Cl)cnc1CNC[C@@H]1CCC(=O)N1 (stereo partly drawn) [compound 177] | 9.48
42 | COc1nc(-c2cccc(-c3cccc(-c4cnc(CN[C@@H]5C[C@@H]5F)c(OC)n4)c3Cl)c2Cl)cnc1CNC[C@@H]1CCC(=O)N1 [compound 178] | 9.26
43 | COc1nc(-c2cccc(-c3cccc(-c4cnc(CNC[C@@H]5CCC(=O)N5)c(OC)n4)c3Cl)c2Cl)cnc1CNCC1CC1 [compound 179] | 9.68
44 | COc1nc(-c2cccc(-c3cccc(-c4cnc(CN[C@@H]5C[C@@H]5C(F)F)c(OC)n4)c3Cl)c2Cl)cnc1CNC[C@@H]1CCC(=O)N1 [compound 180] | 8.99
45 | COc1nc(-c2cccc(-c3cccc(-c4cnc(CNC(C)(C)C(F)F)c(OC)n4)c3Cl)c2Cl)cnc1CNC[C@@H]1CCC(=O)N1 [compound 181] | 8.82
46 | COc1nc(-c2cccc(-c3cccc(-c4cnc(CNC5CC5)c(OC)n4)c3Cl)c2Cl)cnc1CNC[C@@H]1CCC(=O)N1 [compound 184] | 9.12
47 | COCC1(NCc2ncc(-c3cccc(-c4cccc(-c5cnc(CNC[C@@H]6CCC(=O)N6)c(OC)n5)c4Cl)c3Cl)nc2OC)CCC1 [compound 185] | 9.32
48 | COc1nc(-c2cccc(-c3cccc(-c4cnc(CNC[C@H]5CCC[C@@H]5O)c(OC)n4)c3Cl)c2Cl)cnc1CNC[C@@H]1CCC(=O)N1 [compound 186] | 10.00
49 | COc1nc(-c2cccc(-c3cccc(-c4cnc(CN5C[C@H]6C[C@H]6[C@H]5CO)c(OC)n4)c3Cl)c2Cl)cnc1CNC[C@@H]1CCC(=O)N1 [compound 187] | 9.55
50 | COC(=O)NC1CCN(Cc2ncc(-c3cccc(-c4cccc(-c5cnc(CNC[C@@H]6CCC(=O)N6)c(OC)n5)c4Cl)c3Cl)nc2OC)C1 (stereo partly drawn) [compound 188] | 9.92
51 | COc1nc(-c2cccc(-c3cccc(-c4cnc(CNCC5CN(C(C)=O)C5)c(OC)n4)c3Cl)c2Cl)cnc1CNCC1CN(C(C)=O)C1 [compound 189] | 10.03
52 | COc1nc(-c2cccc(-c3cccc(-c4cnc(CNC5CC6(C5)CN(C(C)=O)C6)c(OC)n4)c3Cl)c2Cl)cnc1CNC1CC2(C1)CN(C(C)=O)C2 (stereo not drawn) [compound 190] | 9.70
53 | COc1nc(-c2cccc(-c3cccc(-c4cnc(CNC5CN(C(C)=O)C5)c(OC)n4)c3Cl)c2Cl)cnc1CNC[C@@H]1CCC(=O)N1 [compound 191] | 9.84
54 | COc1nc(-c2cccc(-c3cccc(-c4cnc(CN5CC6(C5)CN(C(C)=O)C6)c(OC)n4)c3Cl)c2Cl)cnc1CNC[C@H]1CCC(=O)N1 [compound 192] | 9.81
55 | COc1nc(-c2cccc(-c3cccc(-c4cnc(CN5CCC6(CNC(=O)C6)C5)c(OC)n4)c3Cl)c2Cl)cnc1CNC[C@H]1CCC(=O)N1 (stereo partly drawn) [compound 193] | 9.88
56 | COc1nc(-c2cccc(-c3cccc(-c4cnc(CNC5CCN(C(C)=O)C5)c(OC)n4)c3Cl)c2Cl)cnc1CNC[C@H]1CCC(=O)N1 (stereo partly drawn) [compound 194] | 9.83
57 | COc1nc(-c2cccc(-c3cccc(-c4cnc(CN[C@H]5CC[C@H](NC(C)=O)CC5)c(OC)n4)c3Cl)c2Cl)cnc1CNC[C@H]1CCC(=O)N1 [compound 195] | 10.19
